{"source": "paper PMC7049616", "about": "(Acta Pharmaceutica Sinica. B, 2019)", "key": {"TEL-RET-BaF3": {"system": "TEL-RET-BaF3", "test": "cells", "details": "72 h"}, "HUVEC cells": {"system": "HUVEC cells", "details": "after 12 h"}, "TEL-EPHA1-BaF3": {"system": "TEL-EPHA1-BaF3", "test": "Anti-proliferation assay", "type": "cell-based", "details": "72 h"}, "TEL-FGFR2-BaF3": {"system": "TEL-FGFR2-BaF3", "test": "Anti-proliferation assay", "type": "cell-based", "details": "72 h"}, "TEL-FLT3-BaF3": {"system": "TEL-FLT3-BaF3", "test": "cells", "details": "72 h"}, "TEL-PDGFRa-BaF3": {"system": "TEL-PDGFRa-BaF3", "test": "cells", "details": "72 h"}, "P210-BaF3": {"system": "P210-BaF3", "test": "Anti-proliferation assay", "type": "cell-based", "details": "72 h"}, "TEL-BMX-BaF3": {"system": "TEL-BMX-BaF3", "test": "Anti-proliferation assay", "type": "cell-based", "details": "72 h"}, "TEL-VEGFR1-BaF3": {"system": "TEL-VEGFR1-BaF3", "test": "Anti-proliferation assay", "type": "cell-based", "details": "72 h"}, "TEL-CSF1R-BaF3": {"system": "TEL-CSF1R-BaF3", "test": "Anti-proliferation assay", "type": "cell-based", "details": "72 h"}, "TEL-FGFR3-BaF3": {"system": "TEL-FGFR3-BaF3", "test": "Anti-proliferation assay", "type": "cell-based", "details": "72 h"}, "[1]": {"test": "Acute toxicity study, single oral dose, 7 days observation", "type": "in vivo, ICR mice", "details": "for toxicity observation in acute toxicity study: ICR mice; for Number of deaths (death/total): female ICR mice, 7 days"}, "TEL-PDGFRb-BaF3": {"system": "TEL-PDGFRb-BaF3", "test": "cells", "details": "72 h"}, "TEL-EPHA2-BaF3": {"system": "TEL-EPHA2-BaF3", "test": "Anti-proliferation assay", "type": "cell-based", "details": "72 h"}, "TEL-FGFR1-BaF3": {"system": "TEL-FGFR1-BaF3", "test": "cells", "details": "72 h"}, "Pharmacokinetics study": {"test": "Pharmacokinetics study", "type": "in vivo, Sprague–Dawley rats", "details": "male, Sprague-Dawley, rat, plasma"}, "TEL-cKIT-BaF3": {"system": "TEL-cKIT-BaF3", "test": "cells", "details": "72 h"}, "TEL-FGFR4-BaF3": {"system": "TEL-FGFR4-BaF3", "test": "Anti-proliferation assay", "type": "cell-based", "details": "72 h"}, "BaF3": {"system": "BaF3", "test": "Anti-proliferation assay", "type": "cell-based", "details": "Mus musculus, BaF3, 72 h"}, "TEL-VEGFR3-BaF3": {"system": "TEL-VEGFR3-BaF3", "test": "Anti-proliferation assay", "type": "cell-based", "details": "72 h"}}}
{"smiles": "CCN(CC)CCNC(=O)c1c(C)[nH]c(/C=C2\\C(=O)Nc3ccc(F)cc32)c1C", "note": "[Sunitinib]", "values": [{"measurement": "GI50", "setting": "TEL-RET-BaF3", "value": 110, "unit": "nM"}, {"measurement": "HUVEC migration in wound-healing assay", "setting": "HUVEC cells", "value": "less migrated HUVEC cells"}, {"measurement": "GI50", "setting": "TEL-EPHA1-BaF3", "value": 3210, "unit": "nM"}, {"measurement": "GI50", "setting": "TEL-FGFR2-BaF3", "value": 4, "unit": "nM"}, {"measurement": "GI50", "setting": "TEL-FLT3-BaF3", "value": 32, "unit": "nM"}, {"measurement": "GI50", "setting": "TEL-PDGFRa-BaF3", "value": 1, "unit": "nM"}, {"measurement": "GI50", "setting": "P210-BaF3", "value": 1460, "unit": "nM"}, {"measurement": "GI50", "setting": "TEL-BMX-BaF3", "value": 3020, "unit": "nM"}, {"measurement": "GI50", "setting": "TEL-VEGFR1-BaF3", "value": 350, "unit": "nM"}, {"measurement": "GI50", "setting": "TEL-CSF1R-BaF3", "value": 11, "unit": "nM"}, {"measurement": "GI50", "setting": "TEL-FGFR3-BaF3", "value": 370, "unit": "nM"}, {"measurement": "toxicity observation in acute toxicity study", "setting": "[1]; single dose 500 mg/kg, recovered starting from day 4", "value": "apparent body weight loss"}, {"measurement": "toxicity observation in acute toxicity study", "setting": "[1]; single dose 1000 mg/kg", "value": "unrecovered body weight loss"}, {"measurement": "toxicity observation in acute toxicity study", "setting": "[1]; single dose 2000 mg/kg", "value": "mice death on day 3"}, {"measurement": "Number of deaths (death/total)", "setting": "[1]; single oral dose 125 mg/kg", "value": "♀: 0/2"}, {"measurement": "Number of deaths (death/total)", "setting": "[1]; single oral dose 250 mg/kg", "value": "♀: 0/2"}, {"measurement": "Number of deaths (death/total)", "setting": "[1]; single oral dose 500 mg/kg", "value": "♀: 0/2"}, {"measurement": "Number of deaths (death/total)", "setting": "[1]; single oral dose 1000 mg/kg", "value": "♀: 0/2"}, {"measurement": "Number of deaths (death/total)", "setting": "[1]; single oral dose 2000 mg/kg", "value": "♀: 2/2"}, {"measurement": "GI50", "setting": "TEL-PDGFRb-BaF3", "value": "< 1", "unit": "nM"}, {"measurement": "GI50", "setting": "TEL-EPHA2-BaF3", "value": 1270, "unit": "nM"}, {"measurement": "GI50", "setting": "TEL-FGFR1-BaF3", "value": 1680, "unit": "nM"}, {"measurement": "AUC(0-inf)", "setting": "Pharmacokinetics study; iv, 1 mg/kg", "value": "145 ± 39.6", "unit": "ng·h/mL"}, {"measurement": "AUC(0-t)", "setting": "Pharmacokinetics study; iv, 1 mg/kg", "value": "143 ± 40.3", "unit": "ng·h/mL"}, {"measurement": "Cmax", "setting": "Pharmacokinetics study; iv, 1 mg/kg", "value": "236 ± 66.8", "unit": "ng/mL"}, {"measurement": "MRT last", "setting": "Pharmacokinetics study; iv, 1 mg/kg", "value": "0.98 ± 0.04", "unit": "h"}, {"measurement": "Tmax", "setting": "Pharmacokinetics study; iv, 1 mg/kg", "value": 0.33, "unit": "h"}, {"measurement": "half-life", "setting": "Pharmacokinetics study; iv, 1 mg/kg", "value": "1.05 ± 0.34", "unit": "h"}, {"measurement": "bioavailability", "setting": "Pharmacokinetics study; oral, 10 mg/kg", "value": 75.7, "unit": "%"}, {"measurement": "AUC(0-inf)", "setting": "Pharmacokinetics study; po, 10 mg/kg", "value": "1100 ± 96.7", "unit": "ng·h/mL"}, {"measurement": "AUC(0-t)", "setting": "Pharmacokinetics study; po, 10 mg/kg", "value": "927 ± 108", "unit": "ng·h/mL"}, {"measurement": "Cmax", "setting": "Pharmacokinetics study; po, 10 mg/kg", "value": "175 ± 21.7", "unit": "ng/mL"}, {"measurement": "MRT last", "setting": "Pharmacokinetics study; po, 10 mg/kg", "value": "7.63 ± 0.3", "unit": "h"}, {"measurement": "Tmax", "setting": "Pharmacokinetics study; po, 10 mg/kg", "value": "1.25 ± 1.06", "unit": "h"}, {"measurement": "half-life", "setting": "Pharmacokinetics study; po, 10 mg/kg", "value": "1.38 ± 0.46", "unit": "h"}, {"measurement": "GI50", "setting": "TEL-cKIT-BaF3", "value": 81, "unit": "nM"}, {"measurement": "GI50", "setting": "TEL-FGFR4-BaF3", "value": 2820, "unit": "nM"}, {"measurement": "GI50", "setting": "BaF3", "value": 2560, "unit": "nM"}, {"measurement": "GI50", "setting": "TEL-VEGFR3-BaF3", "value": 570, "unit": "nM"}]}
